Test results from ChEMBL document CHEMBL1148689, “Isolation of new phenylacetylingol derivatives that reactivate HIV-1 latency and a novel spirotriterpenoid from Euphorbia officinarum latex” (2007).
Calls of active or inactive are those of the source. No cut-off for these calls is given here.

Legend:
[1] = system: Jurkat; experiment: Induction of HIV-LTR transactivation assessed by GFP expression in Jurkat cells at 10 ng/ml after 36 hrs by flow cytometry; type: cell-based; conditions: Human immunodeficiency virus
[2] = system: Jurkat; experiment: Cell cycle arrest in human Jurkat cells assessed as accumulation at G0/G1 phase at 50 uM after 36 hrs by flow cytometry; type: functional
[3] = system: Jurkat; experiment: Cell cycle arrest in human Jurkat cells assessed as accumulation at S phase at 50 uM after 36 hrs by flow cytometry; type: functional
[4] = system: Jurkat; experiment: Cell cycle arrest in human Jurkat cells assessed as accumulation at G2/M phase at 50 uM after 36 hrs by flow cytometry; type: functional
[5] = system: Jurkat; experiment: Cell cycle arrest in human Jurkat cells assessed as accumulation at S phase at 10 uM after 36 hrs by flow cytometry; type: functional
[6] = system: Jurkat; experiment: Induction of HIV-LTR transactivation assessed by GFP expression in Jurkat cells at 50 uM after 36 hrs by flow cytometry; type: cell-based; conditions: Human immunodeficiency virus
[7] = system: Jurkat; experiment: Induction of HIV-LTR transactivation assessed by GFP expression in Jurkat cells at 10 uM after 36 hrs by flow cytometry; type: cell-based; conditions: Human immunodeficiency virus
[8] = system: Jurkat; experiment: Cell cycle arrest in human Jurkat cells assessed as accumulation at sub-G0 phase at 10 uM after 36 hrs by flow cytometry; type: functional
[9] = system: Jurkat; experiment: Cell cycle arrest in human Jurkat cells assessed as accumulation at G2/M phase at 10 uM after 36 hrs by flow cytometry; type: functional
[10] = system: Jurkat; experiment: Cell cycle arrest in human Jurkat cells assessed as accumulation at G0/G1 phase at 10 uM after 36 hrs by flow cytometry; type: functional
[11] = system: Jurkat; experiment: Induction of HIV-LTR transactivation assessed by GFP expression in Jurkat cells at 25 uM after 36 hrs by flow cytometry; type: cell-based; conditions: Human immunodeficiency virus
[12] = system: Jurkat; experiment: Cell cycle arrest in human Jurkat cells assessed as accumulation at sub-G0 phase at 50 uM after 36 hrs by flow cytometry; type: functional

SMILES | Activity [1] [%] | Activity [2] [%] | Activity [3] [%] | Activity [4] [%] | Activity [5] [%] | Activity [6] | Activity [7] | Activity [8] [%] | Activity [9] [%] | Activity [10] [%] | Activity [11] | Activity [12] [%]
CCCCCCCCCCCCCC(=O)O[C@@H]1[C@@H](C)[C@@]2(O)[C@@H](C=C(CO)C[C@]3(O)C(=O)C(C)=C[C@@H]23)[C@@H]2C(C)(C)[C@]12OC(C)=O | 97.3 |  |  |  |  |  |  |  |  |  |  | 
CC(=O)OC1/C(C)=C/[C@@]23O[C@@]2(C[C@H](C)[C@@H]3OC(=O)Cc2ccccc2)C(=O)[C@H](C)[C@H](OC(C)=O)[C@@H]2[C@H]([C@H]1OC(C)=O)C2(C)C (some centres undefined) |  | 66.2 | 18.7 | 13.4 | 20.9 | inactive | inactive | 1.52 | 15.9 | 61.5 | inactive | 1.38
CO[C@H]1C(OC(C)=O)/C(C)=C/[C@@]23O[C@@]2(C[C@H](C)[C@@H]3OC(=O)Cc2ccccc2)C(=O)[C@H](C)[C@H](OC(C)=O)[C@@H]2[C@H]1C2(C)C (some centres undefined) |  | 81.4 | 5.31 | 9.22 | 9.01 | 83.5% | 25.5% | 2.34 | 10.8 | 77.8 | 66% | 3.97
COc1ccc(CC(=O)O[C@H]2[C@@H](C)C[C@@]34O[C@@]23/C=C(\C)C(OC(C)=O)[C@H](OC(C)=O)[C@H]2[C@@H]([C@@H](OC(C)=O)[C@@H](C)C4=O)C2(C)C)cc1 (some centres undefined) |  | 61.5 | 21.7 | 14.7 | 21 | inactive | inactive | 1.59 | 16.4 | 60.9 | inactive | 1.95
